Source: publication PMC5132201, “Formylated MHC Class Ib Binding Peptides Activate Both Human and Mouse Neutrophils Primarily through Formyl Peptide Receptor 1” (PLoS ONE, 2016)
Square brackets hold non-standard residues; d marks the D form. Ends that are not written are not given here. Peptide text beside a SMILES is read from it. * marks the point of attachment. For = O=C*

How the values were obtained:
human neutrophils = target: T1, human neutrophils (Homo sapiens, UniProt P21462); test: NADPH-oxidase activity (superoxide production), isoluminol/HRP chemiluminescence, human neutrophils; format: cell-based; settings: for Concentration needed to induce full NADPH-oxidase activity: efficacy close to that of fMIFL; for EC50, NADPH-oxidase activity (superoxide production): isoluminol/HRP chemiluminescence, 37°C, peak response as percent of maximal response, mean of 3-4 independent experiments
T1 sequence (P21462 1-350): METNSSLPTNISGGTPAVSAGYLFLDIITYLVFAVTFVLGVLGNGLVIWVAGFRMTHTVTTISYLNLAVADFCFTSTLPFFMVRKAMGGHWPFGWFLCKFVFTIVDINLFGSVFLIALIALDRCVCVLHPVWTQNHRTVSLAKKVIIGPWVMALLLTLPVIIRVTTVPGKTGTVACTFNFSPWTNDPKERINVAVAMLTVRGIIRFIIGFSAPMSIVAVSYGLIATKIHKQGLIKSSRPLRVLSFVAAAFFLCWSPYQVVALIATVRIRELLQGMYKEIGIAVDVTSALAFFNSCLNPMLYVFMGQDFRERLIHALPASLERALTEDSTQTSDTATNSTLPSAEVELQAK

FPR1 = test: NADPH-oxidase activity in human neutrophils pre-incubated with the FPR1 antagonist cyclosporine H; format: cell-based; settings: for Effect of cyclosporine H on the peptide-induced activity: human neutrophils pre-incubated 5 min at 37°C with 1 μM cyclosporine H (FPR1 antagonist); for Preferred receptor: human neutrophils, from cyclosporine H / PBP10 sensitivity
Protocol: (§1) NADPH-oxidase activity was determined using isoluminol and HRP-enhanced chemiluminescence (CL) systems that allow for the determination of superoxide production. […] The tubes containing 4 U HRP and 10 μg/ml isoluminol together with the cells were equilibrated in the Biolumat for 10 min at 37°C, after which the stimulus (100 μl) was added. The light emission was recorded continuously.
(§2) Neutrophil NADPH-oxidase activity was measured by an isoluminol/HPR chemiluminescence system. […] (10 nM; time for addition indicated by an arrow). […] (1 μM) in the presence or absence (control) of FPR specific inhibitors. Abscissa, Time of study (min); ordinate, superoxide production (in arbitrary light units, cpmx10^-6). […] Data are expressed as mean ± SD from four independent experiments. Abscissa, agonist concentration (M); ordinate, superoxide production (percent of max).

FPR2 = test: NADPH-oxidase activity in human neutrophils pre-incubated with the FPR2 antagonist PBP10; format: cell-based; settings: human neutrophils pre-incubated 5 min at 37°C with 1 μM PBP10 (FPR2 antagonist)
Protocol: as §1, §2

Fpr2^-/- neutrophils = test: NADPH-oxidase activity in neutrophils from wild type versus Fpr2-/- mice; format: cell-based; settings: mouse neutrophils; from WT versus Fpr2-/- cells
Source text: Mice (10–16 weeks of age) were killed by cervical dislocation, the femurs and tibias were removed and freed of soft tissue attachments, and the extreme distal tip of each extremity was cut off. KRG without Ca^2+ and Mg^2+ (KRG-) was forced through the bone by using a 1-ml syringe with a 27-gauge needle. After dispersing cell clumps and removing the debris, the bone marrow granulocytes were isolated according to an earlier described procedure [26] with some modifications. Briefly, cell suspensions in 2 ml of KRG (−) were laid on top of a three-layer Percoll gradient (1.095, 1.085, and 1.070 g/ml). The density of each Percoll solution was verified using density marker beads. […] The cell number and population of bone marrow cells were determined by flow cytometry.
NADPH-oxidase activity was determined using isoluminol and HRP-enhanced chemiluminescence (CL) systems that allow for the determination of superoxide production [27, 28]. […] The light emission was recorded continuously.
Naïve bone marrow cells produce very low level of superoxide upon stimulation and to increase this production, the cells were routinely primed for one hour at RT follow by mouse recombinant TNF-α (10 ng/ml, final concentration) priming for a period of 20 min at 37°C, after which the cells were stimulated and ROS production was determined as described above.

[1] = target: T2, bone marrow derived mouse neutrophils (Mus musculus, UniProt P33766); settings: for EC50, NADPH-oxidase activity (superoxide production): TNF-α primed bone marrow derived mouse neutrophils, isoluminol/HRP chemiluminescence, 37°C, peak response as percent of maximal response, mean of 3-4 independent experiments; for Relative potency, mouse versus human neutrophils: comparison of EC50 values of NADPH-oxidase activation in the two species
T2 sequence (P33766 1-364): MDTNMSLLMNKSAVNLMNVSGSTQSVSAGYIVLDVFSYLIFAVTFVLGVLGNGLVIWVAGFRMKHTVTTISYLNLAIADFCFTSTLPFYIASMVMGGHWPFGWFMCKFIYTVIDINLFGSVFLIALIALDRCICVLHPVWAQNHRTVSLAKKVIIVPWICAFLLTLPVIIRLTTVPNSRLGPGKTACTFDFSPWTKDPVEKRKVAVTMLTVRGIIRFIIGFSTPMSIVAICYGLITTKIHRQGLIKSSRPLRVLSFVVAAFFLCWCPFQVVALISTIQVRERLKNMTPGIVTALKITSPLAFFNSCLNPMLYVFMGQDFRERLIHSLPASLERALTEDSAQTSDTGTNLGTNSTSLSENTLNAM

H2-M3 = settings: crystal structure study; cited from earlier work
Source text: Much less is known about the murine Fprs. It is clear that mouse neutrophils express orthologous of FPR1 and FPR2 (Fpr1 and Fpr2, respectively), but the pharmacological similarities/differences between the human and mouse neutrophil receptors have not been characterized in detail. […] In addition to Fprs, another immune response system, the H2-M3 complex, has evolved in ...

M3 = settings: high-, medium- and low-binders by induction of M3 expression on P388-M3 transfected cells; cited from earlier work
[2] = target: formyl peptide receptor 1 (human) (human (endogenous in neutrophils)) (UniProt P21462)
[3] = target: formyl peptide receptor 1 (human) (human (endogenous in neutrophils)) (UniProt P21462); remark: listed apart in the source
[4] = target: formyl peptide receptor 1 (mouse) (mouse (endogenous in bone marrow neutrophils)) (UniProt P33766)
[5] = target: formyl peptide receptor 1 (human) (human (endogenous in neutrophils)) (UniProt P21462); remark: listed apart in the source

CC[C@H](C)[C@H](NC(=O)[C@H](CC(N)=O)NC(=O)[C@@H](NC(=O)[C@H](Cc1ccccc1)NC(=O)[C@H](Cc1ccc(O)cc1)NC(=O)[C@H](CCSC)NC=O)[C@@H](C)CC)C(=O)N[C@@H](CC(C)C)C(=O)N[C@H](C(=O)N[C@@H](CC(C)C)C(=O)O)[C@@H](C)O (For-MYFINILTL-OH; C-terminus assumed)
Agonist efficacy (full/partial) (human neutrophils; human neutrophils, compared with fMLF or fMIFL): full agonist
Concentration needed to induce full NADPH-oxidase activity (human neutrophils; human neutrophils): around 100 nM
Effect of cyclosporine H on the peptide-induced activity (FPR1): inhibited
Preferred receptor (FPR1): FPR1
Effect of PBP10 on the peptide-induced activity (FPR2): no inhibition
Preferred receptor (Fpr2^-/- neutrophils): Fpr1
EC50 [1]: 14 nM
EC50, NADPH-oxidase activity (superoxide production) [1]: low nM range
Preference of H2-M3 for binding the N-formylated over the non-formylated peptide (H2-M3): 10^4 fold

GYFINILTL
Neutrophil activation (human neutrophils): Neither human nor mouse neutrophils could be activated
Neutrophil activation [1]: Neither human nor mouse neutrophils could be activated

MYFINILTL
NADPH-oxidase activity induced (human neutrophils; human neutrophils, concentrations lower than 1 μM): No activity
NADPH-oxidase activity induced (human neutrophils; human neutrophils, peptide 1 μM (Fig 1A inset)): very low level of activity
Effect of cyclosporine H on the peptide-induced activity (FPR1): not by cyclosporine H
Preferred receptor (FPR1): FPR2
Effect of PBP10 on the peptide-induced activity (FPR2): inhibited by PBP10
NADPH-oxidase activity induced [1]: No activity

fGYFINILTL
Neutrophil activation (human neutrophils): Neither human nor mouse neutrophils could be activated
Neutrophil activation [1]: Neither human nor mouse neutrophils could be activated

fMFFLDA [formylated peptide from a Mycobacterium tuberculosis ribonuclease]
Relative potency, mouse versus human neutrophils [1]: very similar in the two species
M3 binding affinity group (M3): middle range

fMILLV [formylated peptide from a Mycobacterium tuberculosis transport permease]
Concentration needed to induce full NADPH-oxidase activity (human neutrophils; human neutrophils): around 100 nM
EC50, NADPH-oxidase activity (superoxide production) (human neutrophils; human neutrophils): low nM range
EC50, NADPH-oxidase activity (superoxide production) [1]: low nM range
Relative potency, mouse versus human neutrophils [1]: equally potent
M3 binding affinity group (M3): highest M3 affinity

fMIVIL [formylated peptide from a not identified protein in Listeria monocytogenes]
EC50, NADPH-oxidase activity (superoxide production) (human neutrophils; human neutrophils): low nM range
EC50, NADPH-oxidase activity (superoxide production) [1]: low nM range
Relative potency, mouse versus human neutrophils [1]: order of potency was reversed
M3 binding affinity group (M3): highest M3 affinity

fMIVVLV [formylated peptide from a Mycobacterium tuberculosis pyrophosphohydrolase]
EC50, NADPH-oxidase activity (superoxide production) (human neutrophils; human neutrophils): low nM range
EC50, NADPH-oxidase activity (superoxide production) [1]: low nM range
Relative potency, mouse versus human neutrophils [1]: more potent on mouse cells than on human cells
M3 binding affinity group (M3): highest M3 affinity

fMLFAAL [formylated peptide from a Mycobacterium tuberculosis permease]
Potency rank among the peptides (human neutrophils; human neutrophils): most potent to activate human neutrophils
Concentration needed to induce full NADPH-oxidase activity (human neutrophils; human neutrophils): around 100 nM
Relative potency, mouse versus human neutrophils [1]: potencies were reversed
M3 binding affinity group (M3): lowest binding affinity

fMWYYLF [formylated peptide from a Mycobacterium tuberculosis acyltransferase]
Relative potency, mouse versus human neutrophils [1]: more potent for murine cells than for human cells
Potency rank among the peptides ([1]; mouse neutrophils): most potent to activate mouse neutrophils
M3 binding affinity group (M3): lowest binding affinity

B1: f… (peptide)
peptide: For-MYFINILTL
EC50 of NADPH-oxidase activity (superoxide production, isoluminol/HRP chemiluminescence) in human neutrophils [2]: 5 nM

B2: fMFLIDV (peptide)
peptide: For-MFLIDV
EC50 of NADPH-oxidase activity in human neutrophils [3]: 100 nM
EC50 of NADPH-oxidase activity in mouse neutrophils [4]: 1 nM

B3: fmYFINILTL (peptide)
peptide: For-[dM]YFINILTL
EC50 of superoxide release from human neutrophils [5]: 200 nM
